# Measurements: patent US12180226B2, “Spirotricycle RIPK1 inhibitors and methods of uses thereof” (Merck Sharp & Dohme LLC, priority 2021, dated 2024)
# Structures can show the parent of a compound that is named as a salt.
# Target: RIPK1 (recombinant GST-RIPK1 kinase domain, residues 1-327) (Homo sapiens (Human), UniProt Q13546)
# Experiment: RIPK1-ADP-Glo Enzymatic Assay
# Format: biochemical
# Details: ADP-Glo; 25 nM GST-RIPK1, 300 μM ATP; assay lower limit ~25 nM; read-out: RIPK1 V0 Ec50
# Summary of the method: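 ADP-Glo luminescence read after 150 min kinase reaction (300 μM ATP, 3 μM dephosphorylated MBP) using 25 nM Sf21-made GST-kinase domain (1-327), preincubated 30 min with compound. HEPES pH 7.3, 1% DMSO; ten-point 1:3 series from 100000 nM, EC50 via four-parameter sigmoidal regression.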
# Sequence of RIPK1 (recombinant GST-RIPK1 kinase domain, residues 1-327) (Q13546 1-327): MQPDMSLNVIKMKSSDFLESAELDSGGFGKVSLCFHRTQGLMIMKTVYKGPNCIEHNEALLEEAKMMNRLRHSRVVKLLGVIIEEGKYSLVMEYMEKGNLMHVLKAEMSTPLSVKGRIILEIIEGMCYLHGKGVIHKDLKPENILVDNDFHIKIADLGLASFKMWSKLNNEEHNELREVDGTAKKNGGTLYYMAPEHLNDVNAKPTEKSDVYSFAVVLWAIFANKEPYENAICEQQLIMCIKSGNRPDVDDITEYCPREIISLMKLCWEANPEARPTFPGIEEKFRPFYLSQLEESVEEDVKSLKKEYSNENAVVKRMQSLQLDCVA
row,Compound,EC50 [µM]
1,"O=C1N2[C@@H](CO[C@H]2c2cc(F)cc(F)c2)CC12CCN(c1ccnc3c(F)cnn13)CC2 (stereo in doubt) [Example 4.148, 3′-(3,5-difluorophenyl)-1-(3-fluoropyrazolo[1,5-a]pyrimidin-7-yl)dihydro-1′H,3′H,5′H-spiro[piperidine-4,6′-pyrrolo[1,2-c] [1,3]oxazol]-5′-one]",< 0.025
2,"CSc1nc(N2CCC3(CC2)O[C@@H]2CC[C@@H](c4cc(F)cc(F)c4)N2C3=O)n2nccc2n1 [Example 4.86, (5′S,7a′R)-5′-(3,5-difluorophenyl)-1-(2-(methylthio)pyrazolo [1,5-a][1,3,5]triazin-4-yl)tetrahydro-3′H-spiro[piperidine-4,2′-pyrrolo[2,1-b]oxazol]-3′-one, TFA salt]",0.269
3,"N#Cc1cc(N2CCC3(O[C@@H]4CC[C@@H](c5ccccc5)N4C3=O)C(F)C2)ncn1 (single isomer, unassigned) [Example 4.95, 6-((3[S or R],4[R or S], 5′S,7a′R)-3-fluoro-3′-oxo-5′-phenyltetrahydro-3′H-spiro[piperidine-4,2′-pyrrolo[2,1-b]oxazol]-1-yl)pyrimidine-4-carbonitrile]",0.0583
4,"O=C1N2[C@@H](CC[C@H]2c2ccccc2F)OC12CN(S(=O)(=O)c1cccc(F)c1)C2 [Example 8.6, (5′S,7a′R)-5′-(2-fluorophenyl)-1-((3-fluorophenyl)sulfonyl) tetrahydro-3′H-spiro[azetidine-3,2′-pyrrolo[2,1-b]oxazol]-3′-one]",0.421
5,"O=C1N2[C@@H](CC[C@H]2c2ccccc2)OC12CCN(c1ncc(-c3cscn3)cn1)CC2 [Example 21.13, (5′S,7a′R)-5′-phenyl-1-[5-(1,3-thiazol-4-yl)pyrimidin-2-yl]tetrahydro-3′H-spiro[piperidine-4,2′-pyrrolo[2,1-b][1,3]oxazol]-3′-one]",0.0403
6,"CC1CN(C(=O)c2ccccc2)CCC12O[C@@H]1CC[C@@H](c3cc(F)cc(F)c3)N1C2=O (stereo partly drawn) [Example 6.109, (5′S,7a′R)-1-(benzene-carbonyl)-5′-(3,5-difluorophenyl)-3-methyltetrahydro-3′H-spiro[piperidine-4,2′-pyrrolo[2,1-b][1,3]-oxazol]-3′-one]",< 0.025
7,"CC(C)c1oncc1C(=O)N1CCC2(CC1)O[C@@H]1CC[C@@H](c3cc(F)cc(F)c3)N1C2=O [Example 6.49, (5′S,7a′R)-5′-(3,5-difluorophenyl)-1-[5-(propan-2-yl)-1,2-oxazole-4-carbonyl]-tetrahydro-3′H-spiro [piperidine-4,2′-pyrrolo[2,1-b][1,3]-oxazol]-3′-one]",0.989
8,"O=C(c1cccc(O)c1)N1CCC2(CC1)O[C@@H]1CC[C@@H](c3cc(F)cc(F)c3)N1C2=O [Example 5.63, (5′S,7a′R)-5′-(3,5-difluoro-phenyl)-1-(3-hydroxy-benzoyl)tetrahydro-3′H-spiro[piperidine-4,2′-pyrrolo[2,1-b]oxazol]-3′-one]",< 0.025
9,"O=C1N2[C@@H](CC[C@H]2c2cc(F)cc(F)c2)OC12CCN(c1ccc(F)c3ccnn13)CC2 [Example 16.1, (5′S,7a′R)-5′-(3,5-difluorophenyl)-1-(4-fluoropyrazolo[1,5-a]pyridin-7-yl)tetrahydro-3′H-spiro[piperidine-4,2′-pyrrolo[2,1-b]oxazol]-3′-one, TFA salt]",< 0.025
10,"O=C(c1ccc(F)cc1F)N1CCC2(CC1)O[C@@H]1CC[C@@H](c3ccccc3)N1C2=O [Example 5.11, (5′S,7a′R)-1-(2,4-difluoro-benzene-1-carbonyl)-5′-phenyltetrahydro-3′H-spiro[piperidine-4,2′-pyrrolo[2,1-b][1,3]oxazol]-3′-one]",< 0.025
11,"Cc1cnc(-c2ccc(N3CCC4(CC3)O[C@@H]3CC[C@@H](c5ccccc5)N3C4=O)n3nccc23)o1 [Example 21.17, (5′S,7a′R)-1-[4-(5-methyl-1,3-oxazol-2-yl)pyrazolo[1,5-a]pyridin-7-yl]-5′-phenyltetrahydro-3′H-spiro[piperidine-4,2′-pyrrolo[2,1-b][1,3]oxazol]-3′-one]",< 0.025
12,"Cc1ccc(F)c(C(=O)N2CCC3(CC2)O[C@@H]2CC[C@@H](c4cc(F)cc(F)c4)N2C3=O)n1 [Example 6.104, (5′S,7a′R)-5′-(3,5-difluorophenyl)-1-(3-fluoro-6-methylpyri-dine-2-carbonyl)tetra-hydro-3′H-spiro[piperi-dine-4,2′-pyrrolo[2,1-b][1,3]oxazol]-3′-one]",0.0322
13,"O=C(c1ccn2nncc2c1)N1CCC2(CC1)O[C@@H]1CC[C@@H](c3cc(F)cc(F)c3)N1C2=O [Example 6.22, (5′S,7a′R)-5′-(3,5-difluorophenyl)-1-([1,2,3]triazolo[1,5-a]pyridine-5-carbon-yl)tetrahydro-3′H-spiro[piperidine-4,2′-pyrrolo[2,1-b][1,3]oxazol]-3′-one]",0.0305
14,"O=C(c1ccccc1)N1CCC2(CC1)O[C@@H]1CC[C@@H](c3cccc(F)c3F)N1C2=O [Example 17.10, (5′S,7a′R)-1-benzoyl-5′-(2,3-difluorophenyl)tetrahydro-3′H-spiro[piperidine-4,2′-pyrrolo[2,1-b]oxazol]-3′-one]",< 0.025
15,"O=C1N2[C@@H](CC[C@H]2c2ccccc2)OC12CCN(c1ncc(-c3ncco3)c(C(F)(F)F)n1)CC2 [Example 21.2, (5′S,7a′R)-1-[5-(1,3-oxazol-2-yl)-4-(trifluoromethyl)pyrimidin-2-yl]-5′-phenyltetrahydro-3′H-spiro[piperidine-4,2′-pyrrolo[2,1-b][1,3]oxazol]-3′-one]",< 0.025
16,"O=C1N2[C@@H](CC[C@H]2c2ccccc2F)OC12CCN(c1cccc3ncnn13)CC2 [Example 4.253, (5′S,7a′R)-5′-(2-fluorophenyl)-1-([1,2,4]triazolo[1,5-a]pyridin-5-yl)tetrahydro-3′H-spiro[piperidine-4,2′-pyrrolo[2,1-b] [1,3]oxazol]-3′-one]",< 0.025
17,"O=C1N2[C@@H](CC[C@H]2c2cc(F)cc(F)c2)OC12CCN(c1cc(-c3ccccc3)ncn1)CC2 [Example 4.13, (5′S,7a′R)-5′-(3,5-difluorophenyl)-1-(6-phenylpyrimidin-4-yl)tetrahydro-3′H-spiro[piperidine-4,2′-pyrrolo[2,1-b] [1,3]oxazol]-3′-one]",< 0.025
18,"N#Cc1ccc(N2CCC3(CC2)O[C@@H]2CC[C@@H](c4cc(F)cc(F)c4)N2C3=O)n2ncnc12 [Example 14.2, 5-((5′S,7a′R)-5′-(3,5-difluorophenyl)-3′-oxotetrahydro-3′H-spiro[piperidine-4,2′-pyrrolo[2,1-b]oxazol]-1-yl)-[1,2,4]triazolo[1,5-a]pyridine-8-carbonitrile, TFA salt]",< 0.025
19,"O=C(c1ccc2sncc2c1)N1CCC2(CC1)O[C@@H]1CC[C@@H](c3cc(F)cc(F)c3)N1C2=O [Example 6.65, (5′S,7a′R)-1-(1,2-benzothiazole-5-carbonyl)-5′-(3,5-difluorophenyl)tetra-hydro-3′H-spiro [piperidine-4,2′-pyrrolo[2,1-b][1,3]-oxazol]-3′-one]",< 0.025
20,"O=C(c1cnc2cnccn12)N1CCC2(CC1)O[C@@H]1CC[C@@H](c3cc(F)cc(F)c3)N1C2=O [Example 5.67, (5′S,7a′R)-5′-(3,5-difluoro-phenyl)-1-(imidazo[1,2-a]pyrazine-3-carbonyl)-tetrahydro-3′H-spiro [piperidine-4,2′-pyrrolo-[2,1-b]oxazol]-3′-one]",0.135
21,"N#CN1CCC2(CC1)O[C@@H]1CC[C@@H](c3cc(F)cc(F)c3)N1C2=O [Example 4.48, (5′S,7a′R)-5′-(3,5-difluorophenyl)-3′-oxotetrahydro-1H,3′H-spiro[piperidine-4,2′-pyrrolo[2,1-b] [1,3]oxazole]-1-carbonitrile]",0.15
22,"N#Cc1nccc(N2CCC3(CC2)O[C@@H]2CC[C@@H](c4cc(F)cc(F)c4)N2C3=O)n1 [Example 4.5, 4-[(5′S,7a′R)-5′-(3,5-difluorophenyl)-3′-oxotetrahydro-1H,3′H-spiro[piperidine-4,2′-pyrrolo[2,1-b] [1,3]oxazol]-1-yl]pyrimidine-2-carbonitrile]",< 0.025
23,"CCOc1cnc(N2CCC3(CC2)O[C@@H]2CC[C@@H](c4ccccc4)N2C3=O)n2ncnc12 [Example 19.7, (5′S,7a′R)-1-(8-ethoxy[1,2,4]triazolo [1,5-c]pyrimidin-5-yl)-5′-phenyltetrahydro-3′H-spiro[piperidine-4,2′-pyrrolo[2,1-b][l,3]oxazol]-3′-one]",0.025
24,"N#Cc1cccc(S(=O)(=O)N2CCC3(CC2)O[C@@H]2CC[C@@H](c4cc(F)cc(F)c4)N2C3=O)c1 [Example 8.3, 3-{[(5′S,7a′R)-5′-(3,5-difluorophenyl)-3′-oxotetrahydro-1H,3′H-spiro[piperidine-4,2′-pyrrolo[2,1-b][1,3]oxazol]-1-yl]sulfonyl]benzonitrile]",0.213
25,"O=C1N2[C@@H](CC[C@H]2c2cc(F)ccc2F)OC12CCN(c1ccnc3ccnn13)CC2 [Example 4.114, (5′S,7a′R)-5′-(2,5-difluorophenyl)-1-(pyrazolo[1,5-a]pyrimidin-7-yl)tetrahydro-3′H-spiro[piperidine-4,2′-pyrrolo[2,1-b] [1,3]oxazol]-3′-one]",< 0.025
26,"Cc1ccnc(C(=O)N2CCC3(CC2)O[C@@H]2CC[C@@H](c4cc(F)cc(F)c4)N2C3=O)c1 [Example 6.102, (5′S,7a′R)-5′-(3,5-difluorophenyl)-1-(4-methylpyridine-2-carbonyl)tetrahydro-3′H-spiro[piperidine-4,2′-pyrrolo[2,1-b] [1,3]oxazol]-3′-one]",0.0486
27,"CC1CN(C(=O)c2ccccc2)CCC12O[C@@H]1CC[C@@H](c3cc(F)cc(F)c3)N1C2=O (stereo partly drawn) [Example 6.110, (5′S,7a′R)-1-(benzene-carbonyl)-5′-(3,5-difluorophenyl)-3-methyltetrahydro-3′H-spiro[piperidine-4,2′-pyrrolo[2,1-b][1,3]-oxazol]-3′-one]",< 0.025
